Test results as given in patent US12624068B2, “Exon skipping by peptide nucleic acid derivatives” (OliPass Corporation, priority 2016, dated 2026).
{Fethoc} = N-terminal Fethoc capping group (publication's abbreviation); [C(1O2)] = modified PNA monomer acting as cytosine, C(pOq) type, 1O2; [A(5)] = modified PNA monomer acting as adenine, A(p) type, p=5; [G(5)] = modified PNA monomer acting as guanine, G(p) type, p=5; [G(6)] = modified PNA monomer acting as guanine, G(p) type, p=6; {NH2} = C-terminal non-substituted amino (amide) group

Tests used:
[1] = tested on: rats with diabetes-induced peripheral neuropathic pain (DPNP); assay: Reversal of allodynia (von Frey) in rats with diabetes-induced peripheral neuropathic pain; format: in vivo, rat; conditions: 100 pmole/Kg subcutaneous in Days 11, 13, 15, 17 and 19
Procedure: “SCN-ASO 7”, “SCN-ASO 8”, “SCN-ASO 21”, “SCN-ASO 35”, “SCN-ASO 36” and “SCN-ASO 37” were evaluated for their ability to reverse the allodynia in rats with diabetes-induced peripheral neuropathic pain (DPNP). In this example, the six SCN9A ASOs targeting a total of five splice sites were evaluated for their ability to reverse the allodynia induced by diabetic neuropathy in rats.
[Induction of DPNP and Grouping] Diabetes was induced in rats by an intraperitoneal injection of streptozotocin at 60 mg/Kg in Day 0. In Day 10, rats with DPNP were randomly assigned to […] of negative control (vehicle only), “SCN-ASO 7” 100 pmole/Kg, “SCN-ASO 8” 100 pmole/Kg, “SCN-ASO 21” 100 pmole/Kg, “SCN-ASO 35” 100 pmole/Kg, “SCN-ASO 36” 100 pmole/Kg, and “SCN-ASO 37” 100 pmole/Kg. The animals were grouped based on the von Frey scores of individual animals in Day 10. (N=8-9 per group) Allodynia was scored using a set of microfilaments (Touch Test®) according to the “Up & Down” method. [J Neurosci. Methods vol 53(1), 55-63 (1994)]
[ASO Treatment and von Frey Scoring] ASO solutions for injection were prepared by serially diluting aqueous mother stock solutions of the SCN9A ASOs to 100 nM in PBS (phosphate buffered saline). Animals were subcutaneously administered with ASO at 1 mL/Kg in Days 11, 13, 15, 17 and 19. Von Frey scoring was carried out 2 hours post dose in Days 11, 13, 15, 17 and 19. Von Frey scoring was additionally performed in Days 21 and 23 in order to assess the duration of the therapeutic activity after the final dosing. Daily von Frey scores were evaluated for statistical significance by student's t-test against the negative control group (vehicle only, i.e., PBS).

human IDO1 pre-mRNA = assay: IDO1 nested PCR for exon skipping in SKOV3 cells; format: cell-based; conditions: 48 hours
Procedure: “IDO-ASO 1” was evaluated for its ability to induce exon skipping in SKOV3 cells (Cat. Number HTB-77, ATCC) by IDO1 nested PCR as follows. [Cell Culture & ASO Treatment] SKOV3 (human ovary adenocarcinoma) cells were subcultured in 60 mm culture dish containing 5 mL McCoy's 5A modified medium supplemented with 10% FBS, 1% streptomycin/penicillin, 1% L-glutamine, and 1% sodium pyruvate under 5% CO2 at 37° C., and treated with “IDO-ASO 1” for 48 hours at 0 zM (negative control), 10 zM, 100 zM or 1 aM. [RNA Extraction & cDNA Synthesis by One-Step RT-PCR] Total RNA was extracted from the cells using “Universal RNA Extraction Kit” (Cat. Number 9767, Takara) according to the manufacturer's instructions. […] NO: 114); and IDO-exon 10_reverse: (5'→3') […] [Nested PCR Amplification] 1 μL of cDNA was further amplified in a 20 μL nested PCR reaction (Cat. No. K2612, Bioneer) against a set of exon-specific primers [IDO-exon 4_forward: (5'→3') […] NO: 116); and IDO-exon 9_reverse: (5'→3') […] [Identification of Exon Skipping Product] The PCR products were subjected to electrophoretic separation on a 2% agarose gel. The bands of target size were collected and analyzed by Sanger sequencing. […] [ASO Treatment] SKOV3 cells grown in 60 mm culture dish were treated with “IDO-ASO 5” at 0 (negative control), 1, 3, 10, 30 or 100 aM for 48 hours. [cDNA Synthesis by One-step PCR] […] NO: 119); and IDO-exon 8_reverse: (5'→3') […] [Nested PCR Amplification] 1 μL of cDNA was further amplified in a 20 μL nested PCR (Cat. No. K2612, Bioneer) reaction using a set of exon-specific primers [IDO-exon 1n_forward: (5'→3') […] NO: 121); and IDO-exon 8n_reverse: (5'→3') […] “IDO-ASO 6” was evaluated for its ability to induce exon skipping in SKOV3 cells by IDO1 nested PCR as described in “IDO1 Example 3” unless noted otherwise.

B16F10 melanoma = assay: Antitumor activity against B16F10 melanoma in C57BL/6 mice; format: in vivo
Procedure: “PD-ASO 2” was evaluated for its antitumor activity in male C57BL/6 mice (4 weeks old) injected with B16F10 melanoma cells as provided below.
[Inoculation of B16F10 Melanoma Cells] B16F10 mouse melanoma cells (Cat. Number CRL-6475, ATCC) were maintained in 150 mm culture dish containing DMEM supplemented with 10% FBS, 1% streptomycin/penicillin, and 0.01 mg/ml bovine insulin. In Day 0, ca 1×10^5 B16F10 cells dissolved in 50 μL PBS were injected to each animal at the right rear flank.
[Grouping & ASO Treatment] In Day 3, the animals were randomly assigned by weight to 4 groups of 0 (negative control), 2, 10 and 50 pmole/Kg “PD-ASO 2”. (N=15 per group)
Injection solutions were prepared by serially diluting an aqueous mother stock solution of “PD-ASO 2” in PBS to 0 nM (PBS only), 0.4 nM, 2 nM and […] “PD-ASO 2” for the negative control, 2, 10 and 50 pmole/Kg “PD-ASO 2” group, respectively.
The animals were subcutaneously administered with an injection solution at 5 mL/Kg, 2× per week during Day 3 to Day 17.
[Anti-tumor Activity] The anti-tumor activity was assessed by changes in the tumor volume between each ASO treatment group and the negative control group.

[2] = tested on: sodium current in PC3 cells; assay: CoroNa assay of sodium current in PC3 cells; format: cell-based, human; conditions: 30 hours
Procedure: Cellular sodium current is measured by patch clamp. As sodium ions enter cell, the intra-cellular sodium ion level increases. The intra-cellular sodium level can be probed using a sodium ion sensitive dye. “CoroNa Green” is a dye with a sodium ion chelator of crown ether type. Upon chelation with a sodium ion, “CoroNa Green” emits green fluorescence. “CoroNa Green” has been used to indirectly measure the intra-cellular sodium level. […] [Proc. Natl. Acad. Sci. USA vol 106(38), 16145-16150 (2009)]
PC3 cells are known to abundantly express the human SCN9A mRNA, although there are other SCN subtypes concomitantly expressed. [Br J. Pharmacol. vol 156, 420-431 (2009)] Thus an inhibition of SCN9A mRNA expression may lead to a considerable reduction of the sodium current in PC3 cells, if the sodium ion current by the Nav1.7 sodium channel subtype occupies a marked portion of the total sodium ion current in PC3 cells. It is note that the SCN9A mRNA encodes the Nav1.7 sodium channel subtype.
“SCN-ASO 7” was evaluated for its ability to inhibit the sodium ion current in PC3 cells using “CoroNa Green” as follows.
[ASO Treatment] PC3 cells grown in 35 mm culture dish containing 2 mL F-12K medium were treated with “SCN-ASO 7” at 0 zM (negative control), 100 zM or 1 aM.
[CoroNa Assay] 30 hours later, the cells were washed with 2 mL HBSS (Hank's Balanced Salt Solution, Cat. Number 14025-092, Life Technologies), and then charged with 2 mL fresh HBSS. Then the cells were treated with 5 μM “CoroNa Green” (Cat. Number C36676, Life Technologies) at 37° C. 30 min later, the cells were washed 2× with 2 mL HBSS, and charged with 2 mL fresh HBSS. The culture dish was mounted on an Olympus fluorescence microscope equipped with a digital video camera to continuously capture the green fluorescence images of the cells. The cells were acutely treated with 100 mM NaCl, and then the changes in fluorescence cellular images were digitally recorded over a period of 3 min. There were about 4 cells per frame on average. The fluorescence intensities from each individual cell were traced at the resolution of a second. The traces of the intracellular fluorescence intensities from individual cells were overlaid and averaged at each time point. The average of the traces from the individual cells of each ASO concentration were plotted as provided in FIG. 30A using ImageJ program (version 1.50i, NIH). The average fluorescence intensity trace was taken as the individual intra-cellular sodium concentration trace for the cells treated with “SCN-ASO 7” at 0 (negative control), 100 or 1,000 zM.
“SCN-ASO 3” was evaluated for its ability to inhibit the sodium current in PC3 cells using “CoroNa Green” according to the protocol described in “SCN9A Example 5”, unless noted otherwise.
“SCN-ASO 8” was evaluated for its ability to inhibit the sodium current in PC3 cells using “CoroNa Green” according to the protocol described in “SCN9A Example 3”, unless noted otherwise.

SCN9A mRNA = assay: SCN9A nested qPCR by SYBR Green in PC3 cells; format: cell-based, human; conditions: 24 hours
Procedure: “SCN-ASO 7” was evaluated for its ability to inhibit the expression of the human SCN9A mRNA in PC3 cells by qPCR against a set of exon-specific primers as follows. [Cell Culture & ASO Treatment] PC3 cells grown in 60 mm culture dish containing 5 mL culture medium were incubated with “SCN-ASO 7” for 24 hours at 0 (negative control), 10, 100 or 1,000 zM. (2 culture dishes per concentration) [RNA Extraction] […] [cDNA Synthesis by One Step RT-PCR] […] NO: 78); and SCN-exon 9_reverse: (5'→3') […] NO: 79)]. […] [Nested qPCR Amplification] […] NO: 80); SCN-exon 4_reverse: (5'→3') […] NO: 81); SCN-exon 5_forward: (5'→3') […] NO: 82); SCN-exon 5_reverse: (5'→3') […] NO: 83); SCN-exon 6_forward: (5'→3') […] NO: 84); SCN-exon 6_reverse: (5'→3') […] NO: 85)]. The PCR reactions were probed with SYBR Green (Takara, Japan). […] “SCN-ASO 3” was evaluated for its ability to inhibit the expression of the full-length SCN9A mRNA in PC3 cells according to the protocol described in “SCN9A Example 2”, unless noted otherwise. “SCN-ASO 8” was evaluated for its ability to inhibit the expression of the full-length SCN9A mRNA in PC3 cells according to the protocol described in “SCN9A Example 2”, unless noted otherwise.

[3] = 2 pmole/Kg subcutaneous, 2× per week Day 3 to Day 17

## Fethoc-A(5)TA(5)-CC(1O2)C-TG(6)A-A(5)TC-TG(6)T-NH2 (ATACCCTGAATCTGT; splice-switching; all peptide nucleic acid (PNA), [A(5)] at 1, 3, 10, [C(1O2)] at 5, [G(6)] at 8, 14, 5' {Fethoc}, 3' {NH2}; peptide nucleic acid backbone) [SCN-ASO 36]
[1]
  maximum therapeutic efficacy based on the von Frey scores in Day 19: 0%

## Fethoc-CA(5)A-A(5)CC(1O2)-TTA(5)-CGG(6)-A-NH2 (CAAACCTTACGGA; splice-switching; all peptide nucleic acid (PNA), [A(5)] at 2, 4, 9, [C(1O2)] at 6, [G(6)] at 12, 5' {Fethoc}, 3' {NH2}; peptide nucleic acid backbone) [IDO-ASO 5]
Human IDO1 pre-mRNA; 30 and 100 aM
  IDO1 exon skipping by nested PCR: clearly yielded the mRNA splice variants lacking exons 2-4 and exons 2-6

## Fethoc-CC(1O2)T-CA(5)C-CTG(5)-TTA(5)-C(1O2)CA(5)-C-NH2 (CCTCACCTGTTACCAC; splice-switching; all peptide nucleic acid (PNA), [C(1O2)] at 2, 13, [A(5)] at 5, 12, 15, [G(5)] at 9, 5' {Fethoc}, 3' {NH2}; peptide nucleic acid backbone) [PD-ASO 2]
B16F10 melanoma; 2 pmole/Kg
  average tumor weight in Day 19: ~0.35 g
  inhibition of tumor growth by weight in Day 19: ~70%
B16F10 melanoma; [3]
  inhibition of tumor growth (tumor volume) in Day 19: ~55%
  tumor volume in Day 19: ~375 mm^3
B16F10 melanoma; 10 pmole/Kg, whole period
  antitumor activity (tumor volume): marginal without significance
B16F10 melanoma; 50 pmole/Kg, Day 10 to Day 17
  antitumor activity (tumor volume): comparable to that of the 2 pmole/Kg group
B16F10 melanoma; 50 pmole/Kg, Day 19
  antitumor activity (tumor volume): disappeared in Day 19

## Fethoc-GG(6)C-AA(5)G-A(5)CC(1O2)-TGA(5)-T-NH2 (GGCAAGACCTGAT; splice-switching; all peptide nucleic acid (PNA), [G(6)] at 2, [A(5)] at 5, 7, 12, [C(1O2)] at 9, 5' {Fethoc}, 3' {NH2}; peptide nucleic acid backbone) [IDO-ASO 6]
Human IDO1 pre-mRNA; 1 to 30 aM
  IDO1 exon skipping by nested PCR: clearly yielded a single mRNA splice variant lacking exons 2-5
Human IDO1 pre-mRNA; 100 aM
  IDO1 exon skipping by nested PCR: the exon skipping band was not detected

## Fethoc-TA(5)A-A(5)TA(5)-CGC(1O2)-AA(5)A-A(5)A-NH2 (TAAATACGCAAAAA; all peptide nucleic acid (PNA), [A(5)] at 2, 4, 6, 11, 13, [C(1O2)] at 9, 5' {Fethoc}, 3' {NH2}; peptide nucleic acid backbone) [SCN-ASO 3]
[2]; PC3 cells, 100 zM
  decrease of sodium current (CoroNa): 18%
[2]; PC3 cells, 1,000 zM
  decrease of sodium current / sodium channel activity (CoroNa): 31%
[2]; PC3 cells, 1,000 zM, at 100 sec after 100 mM NaCl
  average cellular fluorescence intensity (CoroNa Green): 61.36 arbitrary unit
SCN9A mRNA; PC3 cells, 10 zM
  decrease of expression levels of SCN9A exons 4-6 (SYBR Green): > 90%
SCN9A mRNA; PC3 cells, 100 zM
  decrease of expression levels of SCN9A exons 4-6 (SYBR Green): ~70%
SCN9A mRNA; PC3 cells, 1,000 zM
  decrease of expression levels of SCN9A exons 4-6 (SYBR Green): ~80%
